Measured values: PubChem BioAssay AID1199 (EPA DSSTox, 2008)
The source made the active and inactive calls.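 The calls were made as follows: active = a tumour-causing dose and a tumour site recorded for mice in at least one sex group; inconclusive = only government mouse studies exist and were judged inadequate; inactive = mouse studies exist but none gave tumours.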

System: mouse carcinogenicity bioassay, TD50 from CPDB
Test: DSSTox (CPDBAS) Carcinogenic Potency Database Summary Mouse Bioassay Results
Description: The Carcinogenic Potency Database (CPDB) is a unique and widely used international resource of the results of over 6500 chronic, long-term animal cancer tests on over 1500 chemical substances. The CPDB provides easy access to the bioassay literature, with qualitative and quantitative analyses of both positive and negative experiments that have been published over the past 50 years in the general literature and by the National Cancer Institute/National Toxicology Program. The CPDB standardizes the diverse literature of cancer bioassays that vary widely in protocol, histopathological examination and nomenclature, and in the published author's choices of what information to provide in their papers. Results are reported in the CPDB for tests in rats, mice, hamsters, dogs, and nonhuman primates, and are based on the most positive result among all experiments for each sex-species. The DSSTox CPDBAS (all species) file incorporates data from the CPDB Summary Tables for the full list of over 1500 chemical substances tested in at least one species. Summary bioassay results for Mouse (TD50, tumor sites, male, female, both sexes) are provided in the CPDB Summary Tables and the DSSTox CPDBAS file for over 1000 chemical substances.
TD50 is a standardized quantitative measure of carcinogenic potency (analogous to an LD50) and is reported in the CPDB Summary Table for each species. Activity Score for actives is computed by mapping of LOG10 (1/TD50_Mouse_mmol) activity values spanning range [MIN, MAX] onto Integer 1-100 Activity Score range, where 100 is highest potency and 1 is lowest: Activity Score = 100 * INTEGER[(log10(1/Activity) - MIN)/(MAX […] MIN)]. If activity is reported but no TD50_Mouse_mmol value is computed, such as for a mixture, the Activity Score is assigned the activity value "50". […] Target sites are reported for each sex-species group with a positive result in the CPDB on the basis of a positive author's opinion for the particular site, using all results from both the general literature and NCI/NTP bioassays. If a chemical has two or more target sites listed, the results may be from different experiments, and a single site may be a target organ in more than one experiment, as well. Blank entry in TargetSites field indicates no results reported.

[1] = TD50_Mouse_Note: no positive results, TargetSites_Mouse_Female: no positive results
[2] = TD50_Mouse_Note: TD50 is harmonic mean of more than one positive test, TargetSites_Mouse_Female: stomach
[3] = TD50_Mouse_Note: TD50 is harmonic mean of more than one positive test, TargetSites_Mouse_Female: liver
[4] = TD50_Mouse_Note: no positive results
[5] = TargetSites_Mouse_Female: liver

Structure (SMILES) | outcome [1] | other results
O=CNNc1nc(-c2ccc([N+](=O)[O-])o2)cs1 |  | Potency (TD50_Mouse_Note: TD50 is harmonic mean of more than one positive test, TargetSites_Mouse_Female: hematopoietic system, stomach): 0.0425 mmol/kg/day
S=C1NCCN1 |  | Potency (TD50_Mouse_Note: TD50 is harmonic mean of more than one positive test, TargetSites_Mouse_Female: liver, pituitary gland, thyroid gland): 0.23 mmol/kg/day
CN=C(NC#N)NCCSCc1nc[nH]c1C | inactive | 
ClC/C=C/CCl |  | Potency (TD50_Mouse_Note: positive test results only by intraperitoneal or intravenous injection, TargetSites_Mouse_Female: peritoneal cavity): 0.0122 mmol/kg/day
Nc1nc(N)nc(-c2ccccc2)n1 | inactive; no positive results | 
CC(C)NCC(O)c1ccc(NS(C)(=O)=O)cc1 (centres undefined) | inactive; no positive results | 
[Cl-].[Cl-].[Hg+2] | inactive; no positive results | 
ClCc1ccccc1 |  | Potency [2]: 0.486 mmol/kg/day
Cc1ncc[nH]1 |  | Potency [3]: 9.52 mmol/kg/day
CCOC(=O)CC(SP(=S)(OC)OC)C(=O)OCC (centres undefined) | inactive; no positive results | 
CN1CCCC1=O |  | Potency [3]: 20.7 mmol/kg/day
Oc1ccc2c(c1)OCO2 |  | Potency [2]: 32.5 mmol/kg/day
C=C(C)C(=O)OC | inactive; no positive results | 
C=Cc1cccc[n+]1[O-] | inactive | 
c1ccc(-c2ccccc2)cc1 | inactive; no positive results | 
C/C=N/N(C)C=O |  | Potency (TD50_Mouse_Note: TD50 is harmonic mean of more than one positive test, TargetSites_Mouse_Female: clitoral gland, lung, stomach): 0.0251 mmol/kg/day
CN(C)C(=O)Nc1ccc(Cl)c(Cl)c1 | inactive; no positive results | 
C/C1=C\C=C(\C(C)C)[C@@H](O)C/C(C)=C/CC/C(C)=C/CC1 |  | outcome [4]: inactive; no positive results
COc1c2occc2cc2ccc(=O)oc12 | inactive; no positive results | 
CC(CN1c2ccccc2Sc2ccccc21)N(C)C (centres undefined) | inactive; no positive results | 
O=C(O[C@@H]1Cc2c(O)cc(O)cc2O[C@@H]1c1cc(O)c(O)c(O)c1)c1cc(O)c(O)c(O)c1 |  | outcome [4]: inactive; no positive results

Structure (SMILES) | outcome [1] | other results
C[C@H](CCC(=O)O)[C@H]1CC[C@H]2[C@@H]3[C@H](O)C[C@@H]4C[C@H](O)CC[C@]4(C)[C@H]3CC[C@]12C |  | outcome (TargetSites_Mouse_BothSexes: no positive results): inactive
CCOc1ccccc1C(N)=O |  | Potency (TargetSites_Mouse_Female: no positive results): 3.11 mmol/kg/day
ClC(Br)Br |  | Potency [5]: 0.667 mmol/kg/day
CC(/C=C/C=C(\C)C(=O)O[C@@H]1O[C@H](CO[C@@H]2O[C@H](CO)[C@@H](O)[C@H](O)[C@H]2O)[C@@H](O)[C@H](O)[C@H]1O)=C\C=C\C=C(C)\C=C\C=C(/C)C(=O)O[C@@H]1O[C@H](CO[C@@H]2O[C@H](CO)[C@@H](O)[C@H](O)[C@H]2O)[C@@H](O)[C@H](O)[C@H]1O | inactive; no positive results | 
O=P1(NCCCl)OCCCN1CCCl (centres undefined) |  | Potency (TD50_Mouse_Note: positive test results only by intraperitoneal or intravenous injection, TargetSites_Mouse_Female: hematopoietic system): 0.0194 mmol/kg/day
COc1ccc(C(=O)/C(Br)=C\C(=O)O)cc1 | inactive; no positive results | 
COC(C(=O)O)c1ccccc1 (centres undefined) | inactive; no positive results | 
CCn1c2ccccc2c2cc(N)ccc21 |  | outcome (TD50_Mouse_Note: TD50 is harmonic mean of more than one positive test, TD50_Mouse_mmol was not calculated for this mixture, but Activiity, TargetSites_Mouse_Female: liver): active; liver; Potency [3]: 0.156 mmol/kg/day
O=C1CCc2ccccc2O1 |  | Potency [5]: 4.88 mmol/kg/day
O=C(O)CN(CC(=O)O)CC(=O)O | inactive; no positive results | Potency (TD50_Mouse_Note: TD50 is harmonic mean of more than one positive test, TargetSites_Mouse_Female: kidney): 13.9 mmol/kg/day
ClCOCCl |  | Potency (TD50_Mouse_Note: TD50 is harmonic mean of more than one positive test, TargetSites_Mouse_Female: peritoneal cavity): 0.00158 mmol/kg/day
BrC(Br)Br | inactive; no positive results | 
CC(C)NCC(O)c1ccc2ccccc2c1 (centres undefined) | inactive; no positive results | 
CN(C)c1ccc(C(=O)c2ccc(N(C)C)cc2)cc1 |  | Potency [3]: 0.313 mmol/kg/day
ClC1=C(Cl)[C@]2(Cl)[C@@H]3[C@H]4C[C@H]([C@@H]5O[C@H]45)[C@@H]3[C@@]1(Cl)C2(Cl)Cl | inactive; no positive results | 
C=CC(=O)NCO |  | Potency (TD50_Mouse_Note: TD50 is harmonic mean of more than one positive test, TargetSites_Mouse_Female: harderian gland, liver, lung, ovary): 0.263 mmol/kg/day
CCN(CC)C(=S)[S-].CCN(CC)C(=S)[S-].[Cd+2] | inactive; no positive results | 
OC[C@@H](O)[C@@H](O)[C@H](O)[C@H](O)CO[C@H]1O[C@H](CO)[C@@H](O)[C@H](O)[C@H]1O | inactive; no positive results | 
CNc1ncnc2nc[nH]c12 | inactive; no positive results | 
Cc1cc(N)ccc1N | inactive; no positive results | 
C=CC(O)c1ccc(OC)cc1 (centres undefined) |  | Potency [5]: 0.352 mmol/kg/day
